Data set [1] has as its system E. coli ATCC25922. The data set is described as follows: Antimicrobial resistance development assay. The format is cell-based. Conditions: E. coli ATCC25922 cultured at sub‐MIC.
The subject of data set [2] is E. coli ATCC25922. The data set can be described thus: Live/dead bacteria staining (PI/SYTO9, CLSM). Conditions: 4 µM, 1 h. The format is cell-based.
For data set [3], the system named is MDR K. pneumoniae 4. Conditions: MH broth, 37 °C, 18 h, OD600.
For data set [4], the system named is 29 bacterial strains (11 Gram‐positive, 18 Gram‐negative). The data set is described as follows: GM of the MICs across the 29 bacterial strains. The format is cell-based. The conditions noted are these: MIC values exceeding 100 µg mL^−1 defaulted to 100 µg mL^−1. As to the method: (§1) The 2 fold broth microdilution method was performed following previously established protocols.^[ [65], [66] ^] A total of 29 strains of human pathogenic microorganisms (11 Gram‐positive and 18 Gram‐negative) were included in the assay. Standard strains were maintained in our laboratory, and clinical isolates were obtained from the Fourth Affiliated Hospital of Soochow University. […] Gradient dilutions of the drugs (vancomycin, AMPs, and vancomycin‐AMP conjugates) were prepared in 96‐well plates, with 50 µL of each drug solution added per well. For the vancomycin and AMP mixture, 25 µL of vancomycin was combined with 25 µL of AMP at the corresponding monomer gradient concentration, resulting in a total volume of 50 µL. […] Following incubation, bacterial growth was assessed by measuring absorbance at 600 nm. The MIC was defined as the lowest concentration at which no bacterial growth was detected.

Data set [5] concerns E. faecalis 2.
The subject of data set [6] is MDR K. pneumoniae 3. Conditions: MH broth, 37 °C, 18 h, OD600.
In data set [7] the test system is E. coli CMCC44102.
Data set [8] deals with E. coli ATCC25922 biofilms. The conditions noted are these: 8 µM, 4 h, SYTO9/PI CLSM.
Data set [9] concerns MDR A. baumannii 1. Conditions: MH broth, 37 °C, 18 h, OD600.
Data set [10] relates to C. perfringens ATCC13124. Conditions: MH broth, 37 °C, 18 h, OD600.
The subject of data set [11] is MDR P. aeruginosa 5.
In data set [12] the test system is human erythrocytes. The data set can be described thus: Hemolytic activity assay. The format is cell-based. Conditions: 32 µM; human blood cells, 37 °C, 30 min, A540, 1% Triton X‐100 positive control.
In data set [13] the test system is MDR P. aeruginosa 5 biofilm. The format is cell-based. The conditions noted are these: 4 µM, 48 h, crystal violet, OD595. As to the method: (§2) The mixture was incubated in a 96‐well plate for 48 h. Subsequent steps, including washing, fixation, staining, and OD measurement, were performed as described in the biofilm eradication assay.
Data set [14] deals with E. coli ATCC25922 biofilm. The format is cell-based. The conditions noted are these: 4 µM, 48 h, crystal violet, OD595. As to the method: as §2
For data set [15], the system named is VRSA 52 biofilm. It counts as cell-based, S. aureus. Conditions: 4 µM, 48 h, crystal violet, OD595. The procedure:
as §2

In data set [16] the test system is S. flexneri ATCC12022. The data set is described as follows: MIC, 2 fold broth microdilution. The format is cell-based. Conditions: MH broth, 37 °C, 18 h, OD600. As to the method: as §1
Background: Broth dilution looks for growth in wells or tubes with falling amounts of substance.

In data set [17] the test system is B. cereus CMCC63301. The data set can be described thus: MIC, 2 fold broth microdilution. It counts as cell-based. The conditions noted are these: MH broth, 37 °C, 18 h, OD600. The procedure:
as §1

Data set [18] concerns P. aeruginosa CMCC10104. The data set is described as follows: MIC, 2 fold broth microdilution. The conditions noted are these: MH broth, 37 °C, 18 h, OD600. It counts as cell-based. The procedure: as §1
The test system of data set [19] is S. typhimurium CICC21483. The data set can be described thus: MIC, 2 fold broth microdilution. The format is cell-based. Conditions: MH broth, 37 °C, 18 h, OD600. As to the method:
as §1

Data set [20] concerns V. parahemolyticus ATCC17802. The data set can be described thus: MIC, 2 fold broth microdilution. It counts as cell-based. Conditions: MH broth, 37 °C, 18 h, OD600. As to the method:
as §1

Data set [21] deals with P. aeruginosa 52097. The data set can be described thus: MIC, 2 fold broth microdilution. The format is cell-based. The conditions noted are these: MH broth, 37 °C, 18 h, OD600. The procedure:
as §1

For data set [22], the system named is P. aeruginosa 60357. The data set is described as follows: MIC, 2 fold broth microdilution. It counts as cell-based. The conditions noted are these: MH broth, 37 °C, 18 h, OD600. As to the method: as §1
Data set [23] concerns S. flexneri CMCC51571. The data set is described as follows: MIC, 2 fold broth microdilution. It counts as cell-based. Conditions: MH broth, 37 °C, 18 h, OD600. As to the method:
as §1

In data set [24] the test system is S. aureus CMCC26003 biofilm. The data set is described as follows: Biofilm inhibition, crystal violet. It counts as cell-based. The conditions noted are these: 4 µM, 48 h, OD595. The procedure:
as §2

Data set [25] has as its system VRSA 52 biofilms. The conditions noted are these: 8 µM, 4 h, SYTO9/PI CLSM.
The test system of data set [26] is MDR K. pneumoniae 2. The conditions noted are these: MH broth, 37 °C, 18 h, OD600.
The subject of data set [27] is VRSA 11. The conditions noted are these: 11, 18 h.
Data set [28] relates to E. faecalis ATCC29212. The conditions noted are these: ATCC29212, 18 h.
The test system of data set [29] is S. aureus ATCC29213. The conditions noted are these: ATCC29213, 18 h.
Data set [30] has as its system K. pneumoniae 9883. Conditions: 9883, 18 h.
Data set [31] concerns S. typhimurium ATCC14028. The conditions noted are these: ATCC14028, 18 h.
Data set [32] relates to A. baumannii ATCC19606. The conditions noted are these: ATCC19606, 18 h.
The subject of data set [33] is E. coli ATCC25922. Conditions: ATCC25922, 18 h.
The subject of data set [34] is S. aureus CMCC26003. Conditions: CMCC26003, 18 h.
The test system of data set [35] is S. aureus 15772. The conditions noted are these: 15772, 18 h.
Data set [36] concerns MRSA ATCC43300. The conditions noted are these: ATCC43300, 18 h.
The subject of data set [37] is 13 bacterial strains. The data set can be described thus: GM of MIC from tested bacterial strains (Table S2). It counts as cell-based. Conditions: 13 strains of Table S2. The procedure:
as §1

Data set [38] deals with VRSA 52. The conditions noted are these: VRSA 52; MH broth, 37 °C, 18 h, OD600.
Data set [39] has as its system S. aureus 15192. Conditions: 15192, 18 h.
Data set [40] relates to P. aeruginosa ATCC27853. Conditions: ATCC27853, 18 h.

The results in this text go back to publication PMC12931196, “Vm–MSI: a Vancomycin–Antimicrobial Peptide Conjugate Combating Resistant Bacteria and Broadening the Antimicrobial Spectrum” (Advanced Science, 2025).

Like-named read-outs stand apart in the source and are kept apart here. Ends that are not written are not given here. Bounds are passed on as bounds.

Regarding `O=C(O)c1cn(C2CC2)c2cc(N3CCNCC3)c(F)cc2c1=O` [ciprofloxacin], the “change of MIC over 20 generations” value in [1] was found to be 64 fold.

As to `CC[C@H](C)[C@H](NC(=O)CNC(=O)[C@@H](N)CSC1CC(=O)N(CC2CCC(C(=O)N(C)[C@H](CC(C)C)C(=O)N[C@H]3C(=O)N[C@@H](CC(N)=O)C(=O)N[C@H]4C(=O)N[C@H]5C(=O)N[C@H](C(=O)N[C@H](C(=O)O)c6cc(O)cc(O)c6-c6cc5ccc6O)[C@H](O)c5ccc(c(Cl)c5)Oc5cc4cc(c5O[C@@H]4O[C@H](CO)[C@@H](O)[C@H](O)[C@H]4O[C@H]4C[C@](C)(N)[C@H](O)[C@H](C)O4)Oc4ccc(cc4Cl)[C@H]3O)CC2)C1=O)C(=O)NCC(=O)N[C@@H](CCCCN)C(=O)N[C@@H](Cc1ccccc1)C(=O)N[C@@H](CC(C)C)C(=O)N[C@@H](CCCCN)C(=O)N[C@@H](CCCCN)C(=O)N[C@@H](C)C(=O)N[C@@H](CCCCN)C(=O)N[C@@H](CCCCN)C(=O)N[C@@H](Cc1ccccc1)C(=O)NCC(=O)N[C@@H](CCCCN)C(=O)N[C@@H](C)C(=O)N[C@@H](Cc1ccccc1)C(=O)N[C@H](C(=O)N[C@@H](CCCCN)C(=O)N[C@H](C(=O)N[C@@H](CC(C)C)C(=O)N[C@@H](CCCCN)C(=O)N[C@@H](CCCCN)C(N)=O)[C@@H](C)CC)C(C)C` (stereo partly shown) [Vm‐MSI], in data set [2], the “bacteria killed (mortality)” value was “over 80%”. For the same compound, the MIC in data set [3] is recorded as 4.42(18.75) µM; in data set [5] (E. faecalis 2, MH broth, 37 °C, 18 h, OD600), 4.42(18.75) µM; in data set [6], 2.21(9.38) µM; in [7] (E. coli CMCC44102, MH broth, 37 °C, 18 h, OD600), 2.21(9.38) µM; in data set [9] it was 1.10(4.69) µM; in [10] it was 2.21(9.38) µM. The MIC is 2.21(9.38) µM in data set [11] (MDR P. aeruginosa 5, MH broth, 37 °C, 18 h, OD600); 1.10(4.69) µM in data set [16]; 2.21(9.38) µM in data set [17]; 4.42(18.75) µM in [18]; 4.42(18.75) µM in data set [19]; 8.84(37.5) µM in data set [20]. Besides, the MIC in [21] is reported as 2.21(9.38) µM; in [22] it was 2.21(9.38) µM; in data set [23], 2.21(9.38) µM; in data set [26], 4.42(18.75) µM. Also, in data set [4], the “GM: Geometric mean of the MICs across the 29 bacterial strains” value was 2.60(11.03) µM. Also, the “killing at the bottom of the biofilm” value in data set [8] is recorded as “more than 75%”. In addition, the hemolysis in data set [12] is reported as 10%. In addition, the biofilm formation inhibited came out at 50% in data set [13], 60% in data set [14], 60% in data set [15] and 80% in [24]. The “killing in the bottom layer of the biofilm” value in [25] was found to be 50%. The “killing in the middle layer of the biofilm” value in [25] is on record as 60%. Moreover, in data set [25], the “killing in the surface layer of the biofilm (dead cells)” value is 95%.

On to GIGKFLKKAKKFGKAFVKILKK-NH2 [MSI‐78], for which the MIC in [27] is reported as 15.14(37.5) µM; in data set [28], 30.28(75) µM; in data set [3] it was 7.57(18.75) µM; in data set [5] (2, 18 h) it was 15.14(37.5) µM; in data set [6], 3.79(9.38) µM; in data set [7] (CMCC44102, 18 h), 15.14(37.5) µM. Moreover, the MIC is recorded as 3.79(9.38) µM in [9]; 7.57(18.75) µM in data set [10]; 1.89(4.69) µM in data set [11] (MDR 5, 18 h); 15.14(37.5) µM in data set [29]; 3.79(9.38) µM in data set [16]; 7.57(18.75) µM in data set [17]. The MIC was 7.57(18.75) µM in data set [18]; 7.57(18.75) µM in [19]; 7.57(18.75) µM in data set [20]; 3.79(9.38) µM in [21]; 3.79(9.38) µM in [22]; 3.79(9.38) µM in [23]. Further, the MIC is on record as 15.14(37.5) µM in data set [30] and 7.57(18.75) µM in data set [26]. The “bacteria killed (mortality)” value in data set [2] was 58%. In addition, the “GM: Geometric mean of the MICs across the 29 bacterial strains” value in data set [4] is 7.67(18.99) µM. Besides, in [25], the “killing in the middle layer of the biofilm” value was found to be 25%.

Turning to ILRWPWWPWRRK-NH2 [Omiganan], the MIC is 37.5(21.08) µg mL^−1 in data set [31]; 75(42.15) µg mL^−1 in data set [28]; 75(42.15) µg mL^−1 in data set [32]; 18.75(10.54) µg mL^−1 in data set [33]; 2.34(1.32) µg mL^−1 in data set [34]; 18.75(10.54) µg mL^−1 in data set [29]. Moreover, the MIC is on record as 18.75(10.54) µg mL^−1 in [35]; 37.5(21.08) µg mL^−1 in data set [36]; 9.38(5.27) µg mL^−1 in data set [38]; 18.75(10.54) µg mL^−1 in data set [39]; 18.75(10.54) µg mL^−1 in data set [40]; >100(56.21) µg mL^−1 in data set [30]. Moreover, in [37], the “GM: geometric mean of MIC from tested bacterial strains” value was found to be 36.00 µg/mL.
